Measurements from patent US6537803B1, “Amino acid transporters and uses” (Oregon Health Sciences University, priority 1993, dated 2003).
Like-named read-outs stand apart in the source and are kept apart here.

T1: human ASCT1 neutral amino acid transporter (Homo sapiens, UniProt P43007)
T1 construct: expressed in transfected cells; host or cells: Xenopus laevis oocytes injected with in vitro transcribed RNA (pOTV vector)
T1 sequence (P43007 1-532): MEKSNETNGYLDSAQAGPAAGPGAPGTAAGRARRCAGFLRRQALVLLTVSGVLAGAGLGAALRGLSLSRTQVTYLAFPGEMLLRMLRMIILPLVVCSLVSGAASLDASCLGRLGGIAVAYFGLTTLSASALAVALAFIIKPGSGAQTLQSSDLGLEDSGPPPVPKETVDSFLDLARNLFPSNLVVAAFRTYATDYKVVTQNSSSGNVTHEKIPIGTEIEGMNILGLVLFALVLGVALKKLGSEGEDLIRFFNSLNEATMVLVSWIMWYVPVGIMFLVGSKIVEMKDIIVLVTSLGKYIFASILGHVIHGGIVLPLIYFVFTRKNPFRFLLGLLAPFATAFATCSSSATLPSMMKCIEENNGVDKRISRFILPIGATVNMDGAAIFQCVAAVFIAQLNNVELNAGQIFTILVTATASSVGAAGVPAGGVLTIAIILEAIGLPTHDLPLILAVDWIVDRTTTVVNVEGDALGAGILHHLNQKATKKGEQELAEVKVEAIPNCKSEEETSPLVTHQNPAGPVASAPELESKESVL


Columns and labels:
[1] = biological target: T1, human ASCT1 neutral amino acid transporter; experiment: radiolabeled amino acid uptake in ASCT1 RNA-injected Xenopus oocytes; assay type: cell-based; details: Amino Acid (1 mM); n = 5
Excerpt: (§1) Following the PCR, the product of the amplification reaction was purified using standard techniques (Saiki et al., 1988, Science 239: 487-491). The DNA then digested with the restriction enzymes KpnI and XbaI and then cloned into the polylinker of an oocyte transcription vector (POTV; see Wang el al., 1991, Nature 352: 729-731) that had been digested with KpnI and XbaI. Synthetic RNA was then transcribed in vitro from this clone using the method of Kavanaugh et al. (1992, J. Biol. Chem. 267: 22007-22009) employing bacteriophage T7 RNA polymerase (New England Biolabs, Beverly, Mass.). 20-50 nL of ASCT1 RNA (at a concentration of about 400 μg/mL) was injected into defolliculated stage V-VI Xenopus oocytes excised from female Xenopus laevis anesthetized by immersion in 3-aminobenzoic acid for 60 min. Excised oocytes were treated with collagenase II (Sigma Chemical Co., St. Louis, Mo.) in calcium-free Barth's saline solution [comprising 88 mM NaCl, 1 mM KCl, 2.4 mM NaHCO3, 0.82 mM MgSO4, 7.5 mM Tris-HCl (pH 7.6), 50 U/mL Nystatin (Sigma) and 0.1 mg/mL gentamycin (Sigma)] for 60 min., and then incubated overnight at 15° C. in 50% Leibowitz's L-15 media (Grand Island Biological Co. (GIBCO), Long Island, N.Y.). After overnight incubation the oocytes were mechanically defolliculated and then were injected with ASCT-1 RNA and incubated at 19° C. for 48 h (see Kim el al., 1991, Nature 352: 725-728 for further details of Xenopus oocyte preparation and microinjection).
(§2) Amino acid transport in such oocytes was assayed using [^3H] alanine, [^3H] serine or [^35S] cysteine (obtained from New England Nuclear, Boston, Mass.). Briefly, microinjected oocytes were […] at −60 mV using a Dagan TEV-200 clamp amplifier with an Axon Instruments (Foster City, Calif.) TL-1 A/D interface controlled by pCLAMP software (Axon Instruments) (see Kavanaugh et al., 1992, J. Biol. Chem. 267: 22007-22009 for a detailed review of this methodology) and continuously superfused with ND-96 buffer (consisting of 96 mM NaCl/2 mM KCl/1.8 mM CaCl2/1 mM MgCl2/5 mM HEPES, pH 7.5). For transport measurements, this solution was changed to a solution containing varying concentrations of the radiolabeled amino acids in ND-96 buffer.

[2] = system: Water-injected Oocytes; experiment: radiolabeled amino acid uptake in water-injected Xenopus oocytes; assay type: cell-based, Xenopus laevis; details: Amino Acid (1 mM); n = 5
Excerpt: as §1
as §2, with “For transport measurements, this solution was changed to a solution containing varying concentrations of the radiolabeled amino acids in ND-96 buffer.” left out

[3] = biological target: human EAAT1 excitatory amino acid transporter (Homo sapiens, UniProt P43003); experiment: electrogenic amino acid uptake in EAAT1-expressing Xenopus oocytes; details: for electrogenic uptake in EAAT1-expressing oocytes: 1000 μM
Method: (§3) Such RNA preparations were each introduced into Xenopus oocytes as descnbed in Example 3 to enable expression therein. Amino acid uptake experiments were performed on such oocytes expressing each of the glutamate transporters, also as described in Example 3.
(§4) These experiments were performed essentially as described for the ASCT1 transporter in Example 3.

[4] = biological target: T1, human ASCT1 neutral amino acid transporter; experiment: amino acid-induced inward current in voltage-clamped ASCT1-injected Xenopus oocytes; assay type: cell-based; details: for Imax (maximal current): L-stereoisomer, current normalized to the maximum response obtained with L-alanine, mean ± standard error; for membrane response (inward Na+ currents) of ASCT1-injected oocytes: ND-96 buffer, clamped at −60 mV
Excerpt: as §1, §2
More detailed analyses of ithe kinetics of amino acid influx were performed by least squares linear regression analysis of induced inward current ([I]) plotted as a function of substrate amino acid concentration ([S]), using the equation shown in the legend of Table II.

[5] = system: neuronal cell; details: cited from earlier work
[6] = substrate: N[C@@H](CS)C(=O)O; experiment: cells, lysate or membranes; details: other: inward current vs extracellular substrate concentration
Method: as §3, §4

Row | Molecule | rate of radiolabeled amino acid uptake, ASCT1 RNA-injected Oocytes [1] | electrogenic uptake in EAAT1-expressing oocytes [3] | Imax (maximal current) [4] | rate of radiolabeled amino acid uptake, Water-injected Oocytes [2] | membrane response (inward Na+ currents) of ASCT1-injected oocytes [4] | inward electric current in EAAT1-expressing oocytes (stereospecificity) [3] | inward current in EAAT1-expressing oocytes ([3]; 100 μM in ND-96) | Km ([3]; inward current vs extracellular substrate concentration) | extracellular concentration causing neuronal cell death ([5]; Bouvier et al., 1992, Nicholls & Attwell) | extracellular concentration causing neuronal cell death ([5]; for 5 min., Choi et al., 1987) | Km [6]
1 | N[C@@H](CS)C(=O)O [L-cysteine] | 19.2 ± 5.9 pmol/min per oocyte | capable of being electrogenically transported | 1.0 ± 0.04 | 1.0 ± 0.3 pmol/min per oocyte | hyperpolarization of the cell plasma membrane was produced |  |  |  |  |  | 
2 | N[C@@H](CCC(=O)O)C(=O)O [L-glutamate] |  |  |  |  |  | did not result in the generation of an inward electric current | inward currents as high as several microamps | 54 µM | > 300 µM | > 5 µM | 
3 | human EAAT1 excitatory amino acid transporter (Homo sapiens) (protein) MTKSNGEEPKMGGRMERFQQGVRKRTLLAKKKVQNITKEDVKSYLFRNAFVLLTVTAVIVGTILGFTLRPYRMSYREVKYFSFPGELLMRMLQMLVLPLIISSLVTGMAALDSKASGKMGMRAVVYYMTTTIIAVVIGIIIVIIIHPGKGTKENMHREGKIVRVTAADAFLDLIRNMFPPNLVEACFKQFKTNYEKRSFKVPIQANETLVGAVINNVSEAMETLTRITEELVPVPGSVNGVNALGLVVFSMCFGFVIGNMKEQGQALREFFDSLNEAIMRLVAVIMWYAPVGILFLIAGKIVEMEDMGVIGGQLAMYTVTVIVGLLIHAVIVLPLLYFLVTRKNPWVFIGGLLQALITALGTSSSSATLPITFKCLEENNGVDKRVTRFVLPVGATINMDGTALYEALAAIFIAQVNNFELNFGQIITISITATAASIGAAGIPQAGLVTMVIVLTSVGLPTDDITLIIAVDWFLDRLRTTTNVLGDSLGAGIVEHLSRHELKNRDVEMGNSVIEENEMKKPYQLIAQDNETEKPIDSETKM |  |  |  |  |  |  |  |  |  |  | 300 µM

Further lines, with some results ahead:

Row | rate of radiolabeled amino acid uptake, ASCT1 RNA-injected Oocytes [1] | electrogenic uptake in EAAT1-expressing oocytes [3] | Imax (maximal current) [4] | Molecule | rate of radiolabeled amino acid uptake, Water-injected Oocytes [2] | membrane response (inward Na+ currents) of ASCT1-injected oocytes [4] | inward electric current in EAAT1-expressing oocytes (stereospecificity) [3] | inward current in EAAT1-expressing oocytes ([3]; 100 μM in ND-96) | Km ([3]; inward current vs extracellular substrate concentration) | extracellular concentration causing neuronal cell death ([5]; Bouvier et al., 1992, Nicholls & Attwell) | extracellular concentration causing neuronal cell death ([5]; for 5 min., Choi et al., 1987) | Km [6]
4 | 20 ± 5.1 pmol/min per oocyte | did not result in electrogenic uptake | 1.2 ± 0.08 | N[C@@H](CO)C(=O)O [L-serine] | 0.4 ± 0.1 pmol/min per oocyte | hyperpolarization of the cell plasma membrane was produced |  |  |  |  |  | 
5 | 18 ± 2 pmol/min per oocyte | did not result in electrogenic uptake | (1.0) | C[C@H](N)C(=O)O [L-alanine] | 0.6 ± 0.1 pmol/min per oocyte | hyperpolarization of the cell plasma membrane was produced |  |  |  |  |  | 
